Like-named read-outs stand apart in the source and are kept apart here.
Tests used:
[1] = tested on: primary hippocampal cultures; format: cell-based, rat
Procedure: Briefly, minced fetal hippocampi were incubated with 0.25% trypsin for 30 minutes at 36° C. followed by dissociation of neurons in MEM supplemented with 10% FBS, 10% horse serum, 2 mM glutamine, and 20 microgram/ml DNase II, using a sterile Pasteur pipette. Neurons were plated at approximately 750,000 cells per 35 mm dish on glass coverslips pre-coated with poly-L-lysine and incubated at 36° C., 10% CO2. At 24 hours, media was replaced with MEM supplemented with 10% horse serum and 2 mM glutamine, and the cultures were returned to a 36 degrees C., 10% CO2 incubator.
In situ analysis of apoptosis was performed using In Situ Cell Death Detection Kit (Roche Molecular Biochemicals, Indianapolis, Ind.) according to the manufacturer's instructions. Briefly, infected/treated or non-infected/non-treated cells were fixed with 4% paraformaldehyde (PFA) in PBS (pH=7.4) for 30 minutes at room temperature followed by permiabilization of cells in 0.1% Triton X-100 (in 0.1% sodium citrate) for 2 minutes on ice. DNA breaks were labeled by addition of terminal deoxynucleotidyl transferase (TdT) and nucleotide mixture (containing dUTP-fluorescein conjugated) and incubation for 60 minutes at 37° C. Coverslips were mounted in PBS/glycerol, and cells were analyzed by fluorescence microscopy. After extensive washes in PBS, cells were incubated for 30 minutes at 37° C. with an anti-fluorescein antibody conjugated with alkaline phosphatase (AP). Chromogenic reaction was carried out by adding AP substrate solution (NBT/BCIP in 0.1 M Tris-HCl pH=9.5, 0.05 M MCl2, 0.1M NaCl, and 1 mM levamisole) and incubation for 10 minutes at room temperature. Coverslips were mounted in PBS/glycerol and analyzed by light microscopy. Apoptotic cells (characterized by a dark precipitate) and non-apoptotic cells (diffuse, light staining) were counted in at least five randomly chose microscopic fields (containing at least 250 cells). The percentage of mock-infected neurons undergoing apoptosis (between 4 and 5%) was subtracted from each average.
Cells were infected with 10 PFU/cell of HSV-2 or ICP10deltaPK and apoptosis was determined by TUNEL at 16 and 24 hours p.i. A total of 200-300 cells were counted in five randomly chosen microscopic fields and the mean percentage of TUNEL-positive cells was determined.

P-MAPK1/2 = assay: Immunoblot of P-MAPK1/2 (MAPK activation) in hippocampal neurons; format: cell-based, rat; settings: 20 micromoles U0126
Procedure: Cells were lysed with RIPA buffer (30 mM Tris-Hcl pH=7.4, 0.15 mM NaCl, 1% Nonidet P-40, 0/1% SDS, 0.5% sodium deoxycholate, 1 mM EDTA, 1 mM DTT, 2 mM MgCl2, 0.5 mM PMSF) supplemented with phosphatase and protease inhibitor cocktails (Sigma, St. Louis, Mo.) and sonicated for 1 minute at 25% output power using the Sonicator/Ultrasonic Processor (Misonix, Inc., Farmingdale, N.Y.). Total protein was determined by BCA (Pierce, Rockford, Ill.) and proteins were resolved by SDS-PAGE. Transfer of separated proteins to Schlecher and Schuell nitrocellulose membranes was performed overnight using an electroblotting apparatus. Non-specific binding was blocked by incubating blots for 1 hour at 37° C. in TN-T buffer (0.01 M Tris-Hcl pH=7.4, 0.15 M NaCl, 0.05% Tween 20) containing 1% bovine serum albumin (BSA). After washing with TN-T buffer, the blots were incubated for 2 hours at room temperature with the appropriate antibodies diluted in TN-T buffer containing 0.1% BSA. After three washes with TN-T buffer, the blots were incubated with Protein A-Peroxidase for 1 hour at room temperature. […]
Culture of hippocampal neurons were infected with HSV-2 or ICP10deltaPK at 10 PFU/cell and analyzed for MAPK activation by immunoblotting with antibodies specific for the unphosphorylated (MAPK) and phosphorylated (activated) MAPK species (P-MAPK1/2). […]

JHLA1 cells = assay: TUNEL assay of apoptosis inducers in JHLA1 cells (express ICP10); format: cell-based, human; settings: JHLA1 cells (printed JHLA15); 24 hours with 250 nM STS or 300 nM D-Mann; ±SEM
Procedure: (§1) Vero (African green monkey kidney cells) were obtained from ATCC and grown in Minimum Essential Medium (MEM) with 10% fetal bovine serum (FBS) and antibiotics. HEK293 (human embryonic kidney) cells were grown in Dulbecco's Modified Eagle's Medium (DMEM) with 10% FBS, 1 mM sodium pyruvate, 0.1 mM non-essential amino acids, and antibiotics. The cell line JHLA1 was established from HEK293 cells by transfection with an ICP10 expression vector and clone selection with G418, and the cell line JHL15 was similarly constructed using a vector which expresses the transmembrane deleted mutant of ICP10, p139™, which is PK negative, as described (Smith et al. 1994, Virology, 200:598-612).
(§2) Apoptosis was induced in HEI293 and JHLA1 cells using staurosporine (STS; Calbiochem, San Diego, Calif.) and D-manritol (D-Mann; Sigma, St. Louis, Mo.). […]
(§3) In situ analysis of apoptosis was performed using In Situ Cell Death Detection Kit (Roche Molecular Biochemicals, Indianapolis, Ind.) according to the manufacturer's instructions. […] Coverslips were mounted in PBS/glycerol, and cells were analyzed by fluorescence microscopy. […] Coverslips were mounted in PBS/glycerol and analyzed by light microscopy. Apoptotic cells (characterized by a dark precipitate) and non-apoptotic cells (diffuse, light staining) were counted in at least five randomly chose microscopic fields (containing at least 250 cells). […]

JHL15 cells = assay: TUNEL assay of apoptosis inducers in JHL15 cells (express PK negative p139TM); format: cell-based, human; settings: JHL15 cells (printed RHL15 for STS); 24 hours with 250 nM STS or 300 nM D-Mann; ±SEM
Procedure: as §1, §2, §3

chromosomal DNA = assay: DNA fragmentation assay (agarose gel DNA ladder); format: cell-based, human; settings: 24 hours post-treatment
Procedure: (§4) Apoptosis was induced in HEI293 and JHLA1 cells using staurosporine (STS; Calbiochem, San Diego, Calif.) and D-manritol (D-Mann; Sigma, St. Louis, Mo.). Cells were plated in 6-well plates on glass coverslips or in flasks and allowed to grow for 24 hours at 37° C. in DMEM with 10% FBS, 1 mM sodium pyruvate, 0.1 mM non-essential amino acids, and antibiotics. At 24 hours after plating, media was removed by aspiration, and appropriate dilutions of apoptotic inducers (STS 250 nM, D-Mann 300 mM) were added to the cells for various times indicated in the text. All dilutions were made in cell growth media described above containing 1% FBS. At the indicated times after treatment, cells were processed for TUNEL or harvested for DNA extraction or Western blot assay.
HEK293, JHLA1 and JHL15 cells treated or not treated with apoptotic inducers were collected by gentle scraping at 24 hours post-treatment/infection. DNA was extracted using Puregene DNA Isolation Kit (Gentra Systems, Minneapolis, Minn.) according to the manufacturer's instructions. After spectrophotometrical quantitation, 5-10 micrograms of DNA per samples was separated on a 1.5% agarose gel stained with 0.1 microgram/ml ethidium bromide. Fragmented DNA was visualized by exposure to UV light and photographed using a Polaroid MP-4 land camera.
To determine whether ICP10PK blocks DNA fragmentation induced by STS and D-Mann, treated cells were analyzed using a DNA fragmentation assay which detects degradation of chromosomal DNA into oligonucleosomal fragments.

HEK293 cells = assay: TUNEL assay of apoptosis inducers in HEK293 cells; format: cell-based, human; settings: 24 hours with 250 nM STS or 300 nM D-Mann, ±SEM, three experiments
Procedure: as §1, §2, §3

caspase-3p20 = assay: Immunohistochemistry for activated caspase-3 cleavage product (caspase-3p20) in HEK293, JHL15, JHLA1 cells; format: cell-based, human; settings: STS-treated, ±SEM
Excerpt: FIG. 3B is a graph depicting inhibition of caspase activation by ICP10PK. HEK93, JHL15, and JHLA1 cells treated with STS (as described in FIG. 3A) were stained with caspase3p20 antibody (specific for the activated caspase-3 which is the large fragment of the pro-enzyme), and cells in five randomly chosen microscopic fields were counted. Results are expressed as mean percentage of positive cells±SEM (*=p<0.01 vs. HEK294; +=p<0.01 vs. JHL15 by Student test).
Previous reports have shown that STS-induced cell death is a caspase-dependent process (Jacobson et al., 1996, J. Cell. Biol., 133:1041-1051). […] To determine whether ICP10PK inhibits cleavage of pro-caspase-3, a central determinant of many apoptotic processes, Western blot analysis was performed on cell lysates obtained from STS-treated cells. […] The densitometric units were equal to 0.7 for both STS-treated HEK293 and JHL15 cells and 1.0 and 1.1 for DMSO-treated HEK293 and JHL15 cells, respectively). The levels of caspase-3p32 were similar in STS-treated and untreated JHLA1 cells (FIG. 3A, lanes 5 and 6, respectively). In this case, the densitometric units were equal to 1.2 for both treatments.

PARP = assay: Western blot of PARP cleavage; format: cell-based, human; settings: STS-treated
Procedure: (§5) Cells were collected by gentle scraping and centrifuged at 2,500 rpm for 5 minutes at 4° C. The dry pellet was stored at −80° C. until use. Cells were lysed with RIPA buffer (30 mM Tris-Hcl pH=7.4, […], 1% Nonidet P-40, 0/1% SDS, 0.5% sodium deoxycholate, 1 mM EDTA, 1 mM DTT, 2 mM MgCl2, 0.5 mM PMSF) supplemented with phosphatase and protease inhibitor cocktails (Sigma, St. Louis, Mo.) and sonicated for 1 minute at 25% output power using the Sonicator/Ultrasonic Processor (Misonix, Inc., Farmingdale, N.Y.). Total protein was determined by BCA (Pierce, Rockford, Ill.) and proteins were resolved by SDS-PAGE. Transfer of separated proteins to Schlecher and Schuell nitrocellulose membranes was performed overnight using an electroblotting apparatus. Non-specific binding was blocked by incubating blots for 1 hour at 37° C. in TN-T buffer (0.01 M Tris-Hcl pH=7.4, 0.15 M NaCl, 0.05% Tween 20) containing 1% bovine serum albumin (BSA). […]
To determine whether ICP10PK blocks PARP cleavage by caspase-3, a hallmark of caspase-3 dependent apoptosis, Western blot analysis using PARP antibody was performed on STS-treated HEK293, JHL15, and JHLA1 cells. A 116 kDa band consistent with the uncleaved PARP was detected in mock- and STS-treated cells.

[2] = tested on: procaspase-3 (caspase-3p32); assay: Western blot of inactive procaspase-3 (caspase-3p32), densitometric scanning; format: cell-based, human
Procedure: as §4
as §5, with “(BSA). After washing with TN-T buffer, the blots were incubated for 2 hours at room temperature with the appropriate antibodies diluted in TN-T buffer containing 0.1% BSA. After three washes with TN-T buffer, the blots were incubated with Protein A-Peroxidase for 1 hour at room temperature.” for “(BSA).”

N#CC(=C(/N)Sc1ccccc1N)/C(C#N)=C(\N)Sc1ccccc1N [U0126]
percentage of TUNEL-positive (apoptotic) cells ([1]; HSV-2 infected cultures, 10 micromoles U0126): 20±1.6% | percentage of TUNEL-positive (apoptotic) cells ([1]; HSV-2 infected cultures, 20 micromoles U0126): 39.3±2.8% | P-MAPK1/2 levels vs untreated HSV-2 infected cells (P-MAPK1/2): significantly lower

OC[C@@H](O)[C@@H](O)[C@H](O)[C@H](O)CO [D-Mann, D-mannitol]
percentage of apoptotic (TUNEL-positive) cells (JHLA1 cells): 13±8% | percentage of apoptotic (TUNEL-positive) cells (JHL15 cells): 58±7% | DNA fragmentation (DNA ladder pattern) (chromosomal DNA; HEK293 cells): exhibited a DNA ladder pattern characteristic of apoptosis | DNA fragmentation (DNA ladder pattern) (chromosomal DNA; JHLA1 cells): did not exhibit DNA fragmentation | percentage of apoptotic (TUNEL-positive) cells (HEK293 cells): 79±7.4%

CN[C@@H]1C[C@H]2O[C@@](C)([C@@H]1OC)n1c3ccccc3c3c4c(c5c6ccccc6n2c5c31)C(=O)NC4 [STS, staurosporine]
percentage of apoptotic (TUNEL-positive) cells (JHLA1 cells): 5.8 ± 2.1% | mean percentage of cells positive for caspase-3p20 (caspase-3p20; HEK293 cells): 40.5±0.9% | mean percentage of cells positive for caspase-3p20 (caspase-3p20; JHL15 cells): 36.4±7.6% | mean percentage of cells positive for caspase-3p20 (caspase-3p20; JHLA1 cells): 9.3±0.1% | percentage of apoptotic (TUNEL-positive) cells (JHL15 cells): 79±4.9% | DNA fragmentation (DNA ladder pattern) (chromosomal DNA; HEK293 cells): exhibited a DNA ladder pattern characteristic of apoptosis | DNA fragmentation (DNA ladder pattern) (chromosomal DNA; JHLA1 cells): did not exhibit DNA fragmentation | 85 kDa PARP cleavage product (PARP; HEK293 cells): detected | 85 kDa PARP cleavage product (PARP; JHL15 cells): detected | percentage of apoptotic (TUNEL-positive) cells (HEK293 cells): 71±12.4% | levels of caspase-3p32 ([2]; HEK293 cells, STS 250 nM (DMSO control 1.0)): 0.7 densitometric units | levels of caspase-3p32 ([2]; JHL15 cells, STS 250 nM (DMSO control 1.1)): 0.7 densitometric units | levels of caspase-3p32 ([2]; JHLA1 cells, STS 250 nM (untreated 1.2)): 1.2 densitometric units

O=c1cc(N2CCOCC2)oc2c(-c3ccccc3)cccc12 [LY294002]
percentage of TUNEL-positive cells ([1]; HSV-2 infected cultures, 100 micromolar LY294002): 24.8±2.3 | percentage of TUNEL-positive cells ([1]; mock-infected cultures, 100 micromolar LY294002 (non-treated 5±3)): 72±4.5

Source: patent US7482318B2, “Protein kinase domain of the large subunit of herpes simplex type 2 ribonucleotide reductase (icp 10pk) has anti-apoptotic activity” (priority 2000, dated 2009)
